Target: T1, α1β3 GABAAR WT (Homo sapiens, UniProt P14867+P28472)
T1 construct: inserted between the fourth and fifth residues of the mature peptide; photolabeling full-length heteropentameric GABAARs in native membranes; expressed in transfected cells
T1 sequence (P14867 28-456): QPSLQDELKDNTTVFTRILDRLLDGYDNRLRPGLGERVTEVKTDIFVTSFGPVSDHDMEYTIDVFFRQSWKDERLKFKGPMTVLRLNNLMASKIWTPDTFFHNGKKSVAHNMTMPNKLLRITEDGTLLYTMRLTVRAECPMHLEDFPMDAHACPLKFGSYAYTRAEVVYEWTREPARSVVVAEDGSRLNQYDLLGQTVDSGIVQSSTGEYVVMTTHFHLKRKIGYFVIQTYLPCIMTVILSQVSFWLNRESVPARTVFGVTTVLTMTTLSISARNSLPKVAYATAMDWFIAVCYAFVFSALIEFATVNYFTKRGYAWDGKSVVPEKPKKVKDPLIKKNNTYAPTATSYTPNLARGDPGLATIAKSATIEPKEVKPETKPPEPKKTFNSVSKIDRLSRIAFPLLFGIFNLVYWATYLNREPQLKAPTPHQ
T1 sequence (P28472 26-473): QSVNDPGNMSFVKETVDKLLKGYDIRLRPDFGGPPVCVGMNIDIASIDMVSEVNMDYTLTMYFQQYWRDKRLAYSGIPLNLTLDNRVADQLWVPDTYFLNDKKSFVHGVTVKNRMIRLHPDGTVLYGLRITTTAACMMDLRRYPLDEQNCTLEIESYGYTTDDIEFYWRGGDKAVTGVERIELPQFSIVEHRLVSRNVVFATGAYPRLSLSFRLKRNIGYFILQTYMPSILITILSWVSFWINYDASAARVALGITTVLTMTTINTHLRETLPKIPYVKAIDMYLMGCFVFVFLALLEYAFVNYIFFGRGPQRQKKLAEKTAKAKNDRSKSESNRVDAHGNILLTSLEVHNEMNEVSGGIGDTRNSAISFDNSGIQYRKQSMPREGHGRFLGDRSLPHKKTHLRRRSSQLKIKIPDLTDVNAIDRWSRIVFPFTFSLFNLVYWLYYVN
Assay: [3H]muscimol binding to HEK cell membranes (neurosteroid modulation and isotherms), WT receptor
Conditions: WT α1β3
Experimental: Stably transfected cells were plated into dishes. After reaching 50% confluence, GABAA receptors were expressed by inducing cells with 1 μg/ml of doxycycline with the addition of 5 mM sodium butyrate. Cells were harvested 48 to 72 hr after induction. HEK cells, after induction, were grown to 100% confluence, harvested and washed with 10 mM potassium phosphate, 100 mM potassium chloride (pH 7.5) plus protease inhibitors (Sigma-Aldrich, St. Louis, MO) two times. The cells were collected by centrifugation at 1,000 g at 4°C for 5 min. The cells were homogenized with a glass mortar and a Teflon pestle for ten strokes on ice. The pellet containing the membrane proteins was collected after centrifugation at 20,000 g at 4°C for 45 min and resuspended in a buffer containing 10 mM potassium phosphate, 100 mM potassium chloride (pH 7.5). The protein concentration was determined with micro-BCA protein assay and membranes were stored at −80°C.
[^3H]muscimol-binding assays were performed using a previously described method ([Chen et al., 2019]). […] Assay tubes were incubated for 1 hr on ice in the dark. […] Membranes were collected on Whatman/GF-C glass filter papers using a Brandel cell harvester (Gaithersburg, MD). To perform [^3H]muscimol binding isotherms, 100 μg/ml aliquots of membrane protein were incubated with 0.3 nM–1 μM [^3H]muscimol for 1 hr on ice in the dark. The specific activity for [^3H]muscimol concentrations from 30 nM to 1 μM was reduced to 2 Ci/mmol by dilution with nonradioactive muscimol. The membranes were collected on Whatman/GF-B glass filter papers using a vacuum manifold. […] For [^3H]muscimol-binding experiments examining competitive interactions between neurosteroids, the combined neurosteroids (0.3 μM 3α5αP or 3 μM KK148 ±30 μM KK150) or the same volume of dimethyl sulfoxide (DMSO) were added to the membranes which were then incubated with 3 nM [^3H]muscimol on ice for 1 hr. Time courses of neurosteroid [^3H]muscimol binding enhancement were examined by adding 10 µM of neurosteroids (3α5αP, 3β5αP) to membranes that had been fully equilibrated with 3 nM [^3H]muscimol for 1 hr on ice; binding was then measured as a function of time at 1, 3, 10, 30, 60 min. The membranes were collected on Whatman/GF-B glass filter papers using a vacuum manifold. Radioactivity bound to the filters was measured by liquid scintillation spectrometry using Bio-Safe II (Research Products International, Mount Prospect, IL).

**Q.** What does the source list for CCOC(=O)c1cncn1[C@H](C)c1ccccc1 [Etomidate, etomidate]?
**A.** Emax (% of control) of [3H]muscimol binding (3 nM [3H]muscimol, 100% means no effect): 331.1 ± 9.9 % of control; Bmax of [3H]muscimol binding isotherm in the presence of the modulator (etomidate 100 μM, 3α5αP 30 μM, KK148 30 μM, control 9.8 ± 0.8): 10.1 ± 0.5 pmol/mg

Reference: article PMC7532004, “Site-specific effects of neurosteroids on GABAA receptor activation and desensitization” (eLife, 2020)
